# Test results taken from patent publication US20190111059A1, “COMPOSITIONS AND METHODS FOR TREATING AUTISM SPECTRUM DISORDER” (Marinus Pharmaceuticals, Inc., priority 2017, published 2019).
# Structures can show the parent of a compound that is named as a salt.
# Tests used:
# [1] = tested on: children with non-syndromic autism spectrum disorder (ASD) and language impairment; assay: Randomized placebo-controlled trial: Autism Symptoms Questionnaire (ASQ); type: in vivo, human; conditions: lower = less autism symptoms; for ASQ Stereotypic behavior, estimated effect / ASQ Total score, estimated effect: calcium salt
# Experimental: The Autism Symptoms Questionnaire (“ASQ) is a 34-item checklist (The Center for Autism and Related Disorders) that assesses social interaction (12 items, range 0-4), stereotyped behavior (7 items, range 0-4), communication symptoms (15 items, range 0-5) and total symptoms (34 items, […]). […] This two-arm double-blind randomized placebo-controlled parallel study with a 1:1 allocation was performed at Arkansas Children's Research Institute (Little Rock, Ark., USA) from 4 Jun. 2012 to 22 Nov. 2013. Parent and teacher questionnaires were requested at baseline and 6 and 12 weeks after starting treatment. Parents were asked to deliver baseline questionnaires to teachers or therapists. After the first visit, questionnaires were mailed to the parents and teachers at least 1 week prior to the target date of completion. Parents were asked to bring the completed teacher and parent 12-week questionnaires to the final assessment. Other questionnaires were returned in a preaddressed postage-paid envelope. The target dose of the intervention (INN: DL folinic acid calcium salt; USAN: leucovorin calcium) was 2 mg kg^−1 per day (maximum 50 mg per day) in two equally divided doses with half of the target dose given during the first 2 weeks. Dye-free, milk-product-free, vegetarian capsules were provided in three strengths (5, 10 and 25 mg) by Lee Silsby Compounding Pharmacy (Cleveland Heights, Ohio, USA). Certificate of analysis was provided for each capsule strength by an independent analytical service (Eagle Analytical Services, Houston, Tex., USA) for each batch of capsules produced. In all cases, potency was at least 99%. Secondary outcomes. Secondary outcome measures included the Ohio Autism Clinical Impression Scale (OACIS), Vineland Adaptive Behavior Scale 2nd Edition (VABS) Survey Interview Form and several questionnaires. Parents and teachers were asked to complete the Aberrant Behavior Checklist (ABC), Social Responsiveness Scale (SRS) and Behavioral Assessment System for Children 2nd Edition (BASC). Only parents were asked to complete the Autism Impact Measure (AIM) and Autism Symptoms Questionnaire (ASQ). Secondary outcome measures were analyzed using the mixed-model regression. Because of the large number of secondary outcomes, correction for multiple comparisons was conducted using the false discovery rate.
# [2] = tested on: children with non-syndromic autism spectrum disorder (ASD) and language impairment; assay: Randomized placebo-controlled trial: Vineland Adaptive Behavior Scale (VABS); type: in vivo, human; conditions: higher = better; for VABS Daily living, estimated effect: calcium salt
# Experimental: The Vineland Adaptive Behavior Scale 2nd Edition (“VABS”) is a reliable and valid measure of the ability to perform age-appropriate everyday skills though a 20-30 min structured interview with a caretaker. Standard scores from the communication, daily living, social and motor skills, and adaptive behavioral composite were analyzed. Standard scores have a mean of 100, standard deviation of 15 and range 20-160. […] This two-arm double-blind randomized placebo-controlled parallel study with a 1:1 allocation was performed at Arkansas Children's Research Institute (Little Rock, Ark., USA) from 4 Jun. 2012 to 22 Nov. 2013. Those confirmed to have language impairment were randomized to the folinic acid or placebo group and a fasting blood sample was obtained. Randomization was performed using a random number generator with a block size of four. The research pharmacists had exclusive access to the randomization allocation. After breakfast, the participants returned for language, developmental and behavioral assessments. Following these assessments the family was given the 12 weeks of the intervention and was instructed on its administration. Language, developmental and behavioral assessments were repeated after 12 weeks of treatment. The target dose of the intervention (INN: DL folinic acid calcium salt; USAN: leucovorin calcium) was 2 mg kg^−1 per day (maximum 50 mg per day) in two equally divided doses with half of the target dose given during the first 2 weeks. Dye-free, milk-product-free, vegetarian capsules were provided in three strengths (5, 10 and 25 mg) by Lee Silsby Compounding Pharmacy (Cleveland Heights, Ohio, USA). Certificate of analysis was provided for each capsule strength by an independent analytical service (Eagle Analytical Services, Houston, Tex., USA) for each batch of capsules produced. In all cases, potency was at least 99%. Secondary outcomes. Secondary outcome measures included the Ohio Autism Clinical Impression Scale (OACIS), Vineland Adaptive Behavior Scale 2nd Edition (VABS) Survey Interview Form and several questionnaires. Parents and teachers were asked to complete the Aberrant Behavior Checklist (ABC), Social Responsiveness Scale (SRS) and Behavioral Assessment System for Children 2nd Edition (BASC). Only parents were asked to complete the Autism Impact Measure (AIM) and Autism Symptoms Questionnaire (ASQ). Secondary outcome measures were analyzed using the mixed-model regression. Because of the large number of secondary outcomes, correction for multiple comparisons was conducted using the false discovery rate.
# [3] = vs placebo, mixed-model regression
# [4] = vs placebo, mixed-model regression, listed as folinic acid
smiles,measurement,setting,value
"Nc1nc2c(c(=O)[nH]1)N(C=O)C(CNc1ccc(C(=O)N[C@@H](CCC(=O)O)C(=O)O)cc1)CN2 (mixture of isomers) [Folinic acid, DL folinic acid calcium salt]","ASQ Stereotypic behavior, 12-week assessment mean","[1]; 2 mg kg^−1 per day, 12 weeks, baseline 3.1",3.2 Raw Score
same,"ASQ Social, 12-week assessment mean","[1]; 2 mg kg^−1 per day, 12 weeks, baseline 3.5",3.3 Raw Score
same,"ASQ Communication, 12-week assessment mean","[1]; 2 mg kg^−1 per day, 12 weeks, baseline 4.7",4.7 Raw Score
same,"ASQ Total score, 12-week assessment mean","[1]; 2 mg kg^−1 per day, 12 weeks, baseline 11.3",11.2 Raw Score
same,"ASQ Communication, estimated effect",[1]; [3],0.0 Raw Score
same,"ASQ Social, estimated effect",[1]; [3],−0.1 Raw Score
same,"ASQ Stereotypic behavior, estimated effect",[1]; [3],−0.2 Raw Score
same,"ASQ Total score, estimated effect",[1]; [3],−0.3 Raw Score
same,"ASQ Stereotypic behavior, estimated effect",[1]; [4],significantly improved
same,"ASQ Total score, estimated effect",[1]; [4],significantly improved
same,"VABS Social skills, 12-week assessment mean","[2]; 2 mg kg^−1 per day, 12 weeks, baseline 64.4",68.3 Standard Score
same,"VABS Daily living, 12-week assessment mean","[2]; 2 mg kg^−1 per day, 12 weeks, baseline 64.6",69.2 Standard Score
same,"VABS Adaptive behavior, 12-week assessment mean","[2]; 2 mg kg^−1 per day, 12 weeks, baseline 64.8",67.7 Standard Score
same,"VABS Communication, 12-week assessment mean","[2]; 2 mg kg^−1 per day, 12 weeks, baseline 66.2",68.3 Standard Score
same,"VABS Motor skills, 12-week assessment mean","[2]; 2 mg kg^−1 per day, 12 weeks, baseline 78.9",81.7 Standard Score
same,"VABS Adaptive behavior, estimated effect",[2]; [3],0.3 Standard Score
same,"VABS Communication, estimated effect",[2]; [3],0.2 Standard Score
same,"VABS Motor skills, estimated effect",[2]; [3],0.1 Standard Score
same,"VABS Social skills, estimated effect",[2]; [3],0.2 Standard Score
same,"VABS Daily living, estimated effect",[2]; [3],0.5 Standard Score
same,"VABS Daily living, estimated effect",[2]; [4],significantly improved
